# Values quoted from earlier work, collected in PMC3103655 (Journal of natural products, 2011).
# What was measured:
# LoVo cells = conditions: 10 μg/mL
# KB cells = conditions: 10 μg/mL
# MCF7 breast cancer cells = conditions: read-out: IC50, MCF7 breast cancer cells
# MOLT-4 leukemia cells = conditions: read-out: IC50, MOLT-4 leukemia cells
substance,measurement,setting,value
symplostatin 1,IC50 values against cancer cells,cancer cells,pico- to nanomolar
trungapeptin A,"cytotoxicity, LoVo cells",LoVo cells,did not display cytotoxicity
same,"cytotoxicity, KB cells",KB cells,did not display cytotoxicity
hantupeptin A,IC50,MCF7 breast cancer cells,4000 nM
same,IC50,MOLT-4 leukemia cells,32 nM
dolastatin 10,IC50 values against cancer cells,cancer cells,pico- to nanomolar
